Measurements published in the supplement of paper PMC10307832.

Legend:
Assay in all cases: relative viability (nuclei count vs DMSO), 5 days (fraction); higher = more cells survive
AZ505 + Tozasertib = compound: C1CCC(CC1)N(CCNCCC2=C3C(=C(C=C2)O)NC(=O)CO3)C(=O)CCNCCC4=CC(=C(C=C4)Cl)Cl [AZ505] + Cc1cc(Nc2cc(N3CCN(C)CC3)nc(Sc3ccc(NC(=O)C4CC4)cc3)n2)n[nH]1 [Tozasertib] (partner 0.1 µM)
Method in brief: (§1)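 Relative viability was taken as the ratio of nuclei in treated wells to nuclei in vehicle wells. Lung cancer cell lines in 1536-well plates received compounds by pin tool one day after seeding, either one drug alone or a fixed anchor-drug dose plus five library-drug doses (not always all listed) in √10 steps. Nuclei were counted on 4× images after 5 days of treatment, and values are medians of duplicate plates.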

AZ505 + Bortezomib = compound: C1CCC(CC1)N(CCNCCC2=C3C(=C(C=C2)O)NC(=O)CO3)C(=O)CCNCCC4=CC(=C(C=C4)Cl)Cl [AZ505] + CC(C)C[C@H](NC(=O)[C@H](Cc1ccccc1)NC(=O)c1cnccn1)B(O)O [Bortezomib] (partner 0.002 µM)
Method in brief: as §1

AZ505 + Lapatinib = compound: C1CCC(CC1)N(CCNCCC2=C3C(=C(C=C2)O)NC(=O)CO3)C(=O)CCNCCC4=CC(=C(C=C4)Cl)Cl [AZ505] + CS(=O)(=O)CCNCc1ccc(-c2ccc3ncnc(Nc4ccc(OCc5cccc(F)c5)c(Cl)c4)c3c2)o1 [Lapatinib] (partner 2 µM)
Method in brief: as §1

AZ505 + Olaparib = compound: C1CCC(CC1)N(CCNCCC2=C3C(=C(C=C2)O)NC(=O)CO3)C(=O)CCNCCC4=CC(=C(C=C4)Cl)Cl [AZ505] + O=C(c1cc(Cc2n[nH]c(=O)c3ccccc23)ccc1F)N1CCN(C(=O)C2CC2)CC1 [Olaparib] (partner 8 µM)
Method in brief: as §1

Row | Cell Line | relative viability (AZ505 + Tozasertib; first compound 0.08 µM) | relative viability (AZ505 + Tozasertib; first compound 0.253 µM) | relative viability (AZ505 + Tozasertib; first compound 0.8 µM) | relative viability (AZ505 + Tozasertib; first compound 2.53 µM) | relative viability (AZ505 + Tozasertib; first compound 8 µM) | relative viability (AZ505 + Bortezomib; first compound 0.08 µM) | relative viability (AZ505 + Bortezomib; first compound 0.253 µM) | relative viability (AZ505 + Bortezomib; first compound 0.8 µM) | relative viability (AZ505 + Bortezomib; first compound 2.53 µM) | relative viability (AZ505 + Bortezomib; first compound 8 µM) | relative viability (AZ505 + Lapatinib; first compound 0.08 µM) | relative viability (AZ505 + Lapatinib; first compound 0.253 µM) | relative viability (AZ505 + Lapatinib; first compound 0.8 µM) | relative viability (AZ505 + Lapatinib; first compound 2.53 µM) | relative viability (AZ505 + Lapatinib; first compound 8 µM) | relative viability (AZ505 + Olaparib; first compound 0.08 µM) | relative viability (AZ505 + Olaparib; first compound 0.253 µM) | relative viability (AZ505 + Olaparib; first compound 0.8 µM) | relative viability (AZ505 + Olaparib; first compound 2.53 µM) | relative viability (AZ505 + Olaparib; first compound 8 µM)
1 | RERF-LC-KJ | 0.432 | 0.432 | 0.467 | 0.459 | 0.388 | 1.02 | 1.02 | 1.18 | 1.09 | 1.12 | 0.767 | 0.923 | 0.846 | 0.87 | 0.795 | 0.947 | 0.934 | 0.995 | 0.91 | 0.842
2 | NCI-H1650 | 0.313 | 0.448 | 0.496 | 0.369 | 0.321 | 0.234 | 0.189 | 0.205 | 0.248 | 0.188 | 0.699 | 0.707 | 0.794 | 0.742 | 0.909 | 0.723 | 0.803 | 0.735 | 0.727 | 0.853
3 | BEN | 0.443 | 0.545 | 0.458 | 0.504 | 0.426 | 0.744 | 0.806 | 0.809 | 0.861 | 0.842 | 0.645 | 0.69 | 0.728 | 0.718 | 1.02 | 0.998 | 1.04 | 1.04 | 1.04 | 1.21
4 | NCI-H2170 | 0.845 | 0.715 | 0.641 | 0.741 | 0.766 | – | – | – | – | – | 0.269 | 0.278 | 0.24 | 0.263 | 0.275 | 0.544 | 0.601 | 0.614 | 0.58 | 0.594
5 | NCI-H1299 | – | – | – | – | – | 1.01 | 1.05 | 0.926 | 0.998 | 1.01 | 0.918 | 1.05 | 0.923 | 0.897 | 0.978 | 0.897 | 0.925 | 0.932 | 0.885 | 0.876
6 | EBC-1 | – | – | – | – | – | 0.479 | 0.519 | 0.452 | 0.533 | 0.515 | 0.267 | 0.243 | 0.194 | 0.19 | 0.219 | 0.644 | 0.693 | 0.673 | 0.69 | 0.642
7 | NCI-H1648 | 0.469 | 0.581 | 0.408 | 0.562 | 0.703 | – | – | – | – | – | – | – | – | – | – | – | 0.794 | 0.795 | 0.754 | 1.38
8 | NCI-H1792 | – | – | – | – | – | 0.785 | 1.07 | 0.927 | 0.94 | 1 | 0.822 | 0.846 | 0.861 | 0.852 | 0.99 | 0.432 | 0.447 | 0.404 | 0.517 | 0.321
9 | ChaGo-K-1 | 0.2 | 0.232 | 0.244 | 0.216 | 0.238 | 0.945 | 0.91 | 1.04 | 1 | 1.13 | – | – | – | – | – | 0.404 | 0.439 | 0.431 | 0.402 | 0.469
10 | LK-2 | 0.17 | 0.167 | 0.197 | 0.167 | 0.184 | – | – | – | – | – | 0.777 | 0.837 | 1 | 1.05 | 1.03 | 0.597 | 0.583 | 0.87 | 0.822 | 0.784
11 | NCI-H1944 | 0.248 | 0.249 | 0.24 | 0.236 | 0.236 | – | – | – | – | – | 0.811 | 0.8 | 0.9 | 0.76 | 0.759 | 0.39 | 0.411 | 0.497 | 0.413 | 0.423
12 | NCI-H1793 | 0.392 | 0.346 | 0.386 | – | 0.384 | – | – | – | – | – | 0.541 | 0.524 | 1.04 | 0.75 | 0.889 | 0.696 | 0.885 | 0.769 | 0.772 | 0.972
13 | A549 | – | – | – | – | – | – | – | – | – | – | 0.916 | 0.931 | 0.966 | 0.929 | 0.955 | 0.315 | 0.362 | 0.358 | 0.415 | 0.296
14 | NCI-H358 | 0.094 | 0.0964 | 0.0966 | 0.108 | 0.104 | – | – | – | – | – | 0.408 | 0.474 | 0.416 | 0.371 | 0.435 | 0.569 | 0.761 | 0.584 | 0.604 | 0.59
15 | NCI-H1563 | – | – | – | – | – | 0.846 | 0.743 | 0.83 | 0.766 | 0.922 | 0.836 | 0.882 | 0.998 | 0.865 | 0.905 | – | – | – | – | –
16 | NCI-H1395 | 0.781 | 0.823 | 0.625 | 0.695 | 0.767 | – | – | – | – | – | 0.949 | 0.952 | 0.911 | 1.08 | 0.992 | 0.427 | – | 0.456 | 0.489 | 0.392
17 | NCI-H522 | 0.459 | 0.552 | 0.488 | 0.603 | 0.674 | – | – | – | – | – | – | – | – | – | – | 0.607 | 0.645 | 0.698 | 0.698 | 0.685
18 | IA-LM | – | – | – | – | – | 0.59 | 0.867 | 0.835 | 0.866 | 0.896 | 0.629 | 0.935 | 0.912 | 0.656 | 0.884 | 0.78 | 0.846 | 0.807 | 0.902 | 0.889
19 | NCI-H1703 | – | – | – | – | – | 0.351 | 0.383 | 0.366 | 0.358 | 0.458 | 1 | 1.26 | 1.03 | 1.2 | 1.28 | 0.319 | 0.502 | 0.438 | 0.411 | 0.656
20 | NCI-H441 | 0.564 | 0.546 | 0.625 | 0.534 | 0.589 | 0.751 | 0.636 | 0.598 | 0.432 | 0.621 | – | – | – | – | – | 0.527 | 0.503 | 0.586 | 0.57 | 0.621
21 | LCLC-103H | 0.508 | 0.504 | 0.434 | 0.461 | 0.459 | 0.894 | 1.05 | 1.01 | 1.02 | 1.06 | – | – | – | – | – | 0.677 | 0.729 | 0.729 | 0.734 | 0.717
22 | SW 900 | 0.439 | 0.665 | 0.713 | 0.614 | 0.544 | – | – | – | – | – | – | – | – | – | – | 0.853 | 0.775 | 0.86 | 0.932 | 0.987
